Laboratory results taken from patent US20100168054A1, “Functionalized Beta 1,6 Glucosamine Disaccharides and Process for Their Preparation” (OM PHARMA, priority 2006, published 2010).

Assays:
rat mast cells = assay: Histamine secretion (compound 48/80-stimulated); assay type: cell-based; details: Rattus norvegicus, Mast cell, 2 min, compound 48/80 0.1 μg/ml, 37° C., read-out: IC50
Source text: Using an in vitro rat model of mast cell degranulation (proposed by the CRO CEREP, catalog number 2006: 771-c), we aimed to investigate whether the synthetic molecules OM-174-DP (compound 1b) OM-174-MP-PD (19), OM-174-MP-EP (33), OM-174-MP-CM (35c) and OM-174-MP-PR (17) would inhibit histamine secretion by compound 48/80-stimulated mastocytes. The protocol used is briefly summarized below:
The results are expressed as a percent of control specific activity ((measured specific activity/control specific activity)×100) obtained in the presence of the test compounds. The IC50 values (concentration causing a half-maximal inhibition of control specific activity) were determined by non-linear regression analysis of the inhibition curves generated with mean replicate values using Hill equation curve fitting (Y=D+[(A−D)/(1+(C/C50)nH)], where Y=specific activity, D=minimum specific activity, A=maximum specific activity, C=compound concentration, C50=IC50, and nH=slope factor). This analysis was performed using a software developed at Cerep (Hill software) and validated by comparison with data generated by the commercial software SigmaPlot® 4.0 for Windows® (© 1997 by SPSS Inc.).
In each experiment, the reference compound was tested concurrently with the test compounds in order to assess the assay suitability. It was tested at several concentrations (for IC50 value determination), and the data were compared with historical values determined at CEREP. The assay was rendered valid if the suitability criteria were met, in accordance with the corresponding Standard Operating Procedure.

TLR2 and CD14 = molecular target: T1, TLR2 and CD14 (Homo sapiens, UniProt O60603); assay: HEK-TLR2-CD14 IL-8 secretion; assay type: cell-based; details: for IL-8 secretion, mean: 24 h; for activation of IL-8 secretion via TLR2 (in words): HEK-TLR2-CD14
T1 construct: expressed in transfected cells; host or cells: HEK (HEK-TLR2-CD14 cell line)
Source text: The HEK293 cell line was chosen for its null or low basal expression of the TLR genes. These cells enable efficient monitoring of TLR activity using ELISA analysis such as IL-8 titration or reporter-based systems that monitor TLR-induced NF-κB activation. HEK-TLR2 cells (Invivogen, Toulouse, France) are engineered HEK293 cells stably transfected with multiple genes from the TLR2 pathway that include TLR2 and genes participating in the recognition or involved in the signaling cascade. These cells secrete IL-8 after TLR2 stimulation. The experiments were performed according to manufacturers' instructions. Briefly, 2×10^4 cells/well (200 ul RPMI) are incubated at 37° C. during 3 days (5% CO2). The medium is removed, and 90 ul RPMi+5% FCS is added to the wells Then the agonists and controls are added (10 ul/well). The cells return to the incubator for 24 hours. The supernatants are collected and the IL-8 ELISA is performed according to manufacturer's instructions These preliminary results were confirmed in another cell line expressing concomitantly TLR2 and CD14. The procedure used is similar to the one described just above.

murine macrophages = assay: Nitric oxide production by murine macrophages (Griess reaction); assay type: cell-based, C57/BL6 mice; details: 22 h
Source text: Experimental assay of nitric oxide production by murine macrophages: Six-week old male C57/BL6 mice (six weeks old male, SPF quality, Charles Rivier, FR) were killed by CO2 inhalation. The hip, femur, and tibia from the posterior appendage were removed. The bone marrow was extracted from the lumen by injecting Dulbecco's Modified Eagle Medium (DH) through the bone after cutting both end portions. After washing, the stem cells were resuspended (40'000 cells/mL) in DH medium supplemented with 20% horse serum and 30% L929 cell supernatant. The cell suspension is incubated for 8 days in an incubator at 37° C. under 8% CO2 and moisture-saturated atmosphere. Macrophages are then detached with ice-cold PBS, washed and resuspended in DH medium supplemented with 5% fetal calf serum (FCS), amino acids and antibiotics (DHE medium). The cell density is adjusted to 700′000 cells/mL. Aqueous solutions of the products are serially diluted in DHE medium directly in microtiter plates. The products are tested in triplicates and each microtiter plate comprises a negative control composed of medium. The final volume in each well is […]. 100 μL of the cell suspension are added to the diluted products and the cells are incubated for 22 h in an incubator at 37° C., under 8% CO2 and a moisture-saturated atmosphere. At the end of the incubation period, 100 μL of supernatant are transferred to another microtiter plate and the nitrite concentration produced in each supernatant is determined by running a Griess reaction. 100 μL of Griess reagent (5 mg/mL of sulfanilamide+0.5 mg/mL of N-(1-naphtyl)ethylene-diamine hydrochloride) in 2.5% aqueous phosphoric acid, are added to each well. The microtiter plates are read with a spectrophotometer (SpectraMax Plus, Molecular Devices) at 562 nm against a reference at 690 nm. The nitrite concentration is proportional to nitric oxide content being formed. The nitrite content is determined based on a standard curve. The results are given as mean value±standard deviation and plotted as a dose response curve.

T1 sequence (O60603 21-784): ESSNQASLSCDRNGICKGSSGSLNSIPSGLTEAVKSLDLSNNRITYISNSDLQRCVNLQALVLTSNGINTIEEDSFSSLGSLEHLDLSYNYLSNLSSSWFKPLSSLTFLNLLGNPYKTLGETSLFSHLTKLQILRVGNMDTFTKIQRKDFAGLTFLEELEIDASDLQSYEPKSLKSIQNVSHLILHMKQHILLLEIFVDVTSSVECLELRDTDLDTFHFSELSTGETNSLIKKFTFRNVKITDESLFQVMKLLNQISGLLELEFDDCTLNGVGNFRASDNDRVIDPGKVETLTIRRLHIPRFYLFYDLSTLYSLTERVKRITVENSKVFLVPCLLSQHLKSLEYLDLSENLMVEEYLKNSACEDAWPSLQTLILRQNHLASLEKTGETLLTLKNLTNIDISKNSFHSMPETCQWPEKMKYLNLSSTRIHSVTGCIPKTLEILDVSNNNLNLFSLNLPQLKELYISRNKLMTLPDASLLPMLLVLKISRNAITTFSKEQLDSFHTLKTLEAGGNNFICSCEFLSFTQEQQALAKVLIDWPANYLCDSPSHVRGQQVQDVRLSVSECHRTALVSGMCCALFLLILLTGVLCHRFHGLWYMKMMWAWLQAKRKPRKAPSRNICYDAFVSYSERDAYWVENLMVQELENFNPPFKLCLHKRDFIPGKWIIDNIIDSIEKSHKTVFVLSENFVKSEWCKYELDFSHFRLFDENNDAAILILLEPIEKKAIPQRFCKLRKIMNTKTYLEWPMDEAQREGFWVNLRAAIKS

| SMILES | IC50 (rat mast cells) [µM] | IL-8 secretion, mean (TLR2 and CD14; 14 ng/ml) [pg/mL] | IL-8 secretion, mean (TLR2 and CD14; 41 ng/ml) [pg/mL] | IL-8 secretion, mean (TLR2 and CD14; 124 ng/ml) [pg/mL] | IL-8 secretion, mean (TLR2 and CD14; 370 ng/ml) [pg/mL] | IL-8 secretion, mean (TLR2 and CD14; 1111 ng/ml) [pg/mL] | IL-8 secretion, mean (TLR2 and CD14; 3333 ng/ml) [pg/mL] | IL-8 secretion, mean (TLR2 and CD14; 10000 ng/ml) [pg/mL] | activation of IL-8 secretion via TLR2 (in words) (TLR2 and CD14) | dose from which active (nitric oxide production) (murine macrophages) [µg/mL] | nitric oxide production (in words), FIG. 25 (murine macrophages) |
| --- | --- | --- | --- | --- | --- | --- | --- | --- | --- | --- | --- |
| CCCCCCCCCCCC(=O)O[C@H](CCCCCCCCCCC)CC(=O)NC1C(OCC2OC(OP(=O)(O)O)C(NC(=O)C[C@H](O)CCCCCCCCCCC)C(O)C2O)OC(CO)C(OP(=O)(O)O)C1O (stereo partly drawn) [compound 1b, 2-Deoxy-6-O-[2-deoxy-4-O-(dihydroxyphosphoryl)-2-[(R)-3-dodecanoyloxytetradecanoylamino]-β-D-glucopyranosyl]-2-[(R)-3-hydroxytetradecanoylamino]-α-D-glucopyranosyl dihydrogenophosphate] | 0.086 |  |  |  |  |  |  |  |  |  |  |
| CCCCCCCCCCCC(=O)O[C@H](CCCCCCCCCCC)CC(=O)N[C@H]1[C@H](OC[C@H]2O[C@H](OCCOP(=O)(O)O)[C@H](NC(=O)C[C@H](O)CCCCCCCCCCC)[C@@H](O)[C@@H]2O)O[C@H](CO)[C@@H](OP(=O)(O)O)[C@@H]1O [compound 33, 2-(Phosphonooxy)ethyl-2-Deoxy-6-O-[2-deoxy-4-O-(dihydroxyphosphoryl)-2-[(R)-3-dodecanoyloxytetradecanoylamino]-β-D-glucopyranosyl]-2-[(R)-3-hydroxytetradecanoylamino]-α-D-glucopyranoside] | 0.21 | 0.10 | 0.03 | 0.17 | 0.19 | 0.52 | 1.49 | 4.24 | able to activate IL-8 secretion via TLR2 |  |  |
| CCCCCCCCCCCC(=O)O[C@H](CCCCCCCCCCC)CC(=O)N[C@H]1[C@H](OC[C@H]2O[C@H](OCC(O)CO)[C@H](NC(=O)C[C@H](O)CCCCCCCCCCC)[C@@H](O)[C@@H]2O)O[C@H](CO)[C@@H](OP(=O)(O)O)[C@@H]1O (stereo partly drawn) [compound 19, 2,3-Dihydroxypropyl-2-Deoxy-6-O-[2-deoxy-4-O-(dihydroxyphosphoryl)-2-[(R)-3-dodecanoyloxytetradecanoylamino]-β-D-glucopyranosyl]-2-[(R)-3-hydroxytetradecanoylamino]-α-D-glucopyranoside] | 0.16 | 0.05 | 0.03 | 0.11 | 0.10 | 0.17 | 0.26 | 0.65 |  | ≥ 0.01 | able to induce high levels of nitric oxide |
| CCCCCCCCCCCC(=O)O[C@H](CCCCCCCCCCC)CC(=O)N[C@H]1[C@H](OC[C@H]2O[C@H](OCCC)[C@H](NC(=O)C[C@H](O)CCCCCCCCCCC)[C@@H](O)[C@@H]2O)O[C@H](CO)[C@@H](OP(=O)(O)O)[C@@H]1O [compound 17, Propyl-2-Deoxy-6-O-[2-deoxy-4-O-(dihydroxyphosphoryl)-2-[(R)-3-dodecanoyloxytetradecanoylamino]-β-D-glucopyranosyl]-2-[(R)-3-hydroxytetradecanoylamino]-α-D-glucopyranoside] | 1.6 | 0.13 | 0.14 | 0.20 | 0.22 | 0.40 | 1.06 | 3.59 | able to activate IL-8 secretion via TLR2 |  | able to induce high levels of nitric oxide |
| CCCCCCCCCCCC(=O)O[C@H](CCCCCCCCCCC)CC(=O)N[C@H]1[C@H](OC[C@H]2O[C@H](O)[C@H](NC(=O)C[C@H](O)CCCCCCCCCCC)[C@@H](O)[C@@H]2O)O[C@H](CO)[C@@H](OP(=O)(O)O)[C@@H]1O [compound 16, 2-Deoxy-6-O-[2-deoxy-4-O-(dihydroxyphosphoryl)-2-[(R)-3-dodecanoyloxytetradecanoylamino]-β-D-glucopyranosy]-2-[(R)-3-hydroxytetradecanoylamino]-α-D-glucopyranose] |  | 0.03 | 0.00 | 0.03 | 0.01 | 0.06 | 0.13 | 0.22 |  |  | able to induce high levels of nitric oxide |
